According to patent US20230295152A1 (SENDA BIOSCIENCES, INC., priority 2019, published 2023):

Tests used:
Assay type in all cases: in vitro ADME
[1] = molecular target: T1, CYP3A4 (Homo sapiens, UniProt P08684); experiment: CYP Inhibition Assay in human liver microsomes, CYP3A4; conditions: pH 7.4
T1 construct: from tissue; host or cells: human liver microsomes (HLM)
Description: (§1) Stock solutions of test compounds were prepared in DMSO at the concentrations of 10 mM. Stock solution was diluted to 2 mM with acetonitrile. The final concentration of test compounds was 10 μM. For the stock solution preparation, if the positive control could not be well dissolved in the mixture of DMSO and acetonitrile (1:4) at the highest concentration, another mixture of acetonitrile and DMSO, the mixture of acetonitrile and H2O or DMSO will be used to dissolve the compound.
The substrate solutions are stored in a −20° C. freezer and warmed to room temperature prior to use.
Preparation of Phosphate Buffer (100 mmol/L, pH 7.4): To prepare the Solution A, 7.098 g of disodium hydrogen phosphate were weighed out and added into 500 mL of pure water, then sonicated to dissolve the content. To prepare the Solution B, 3.400 g of potassium dihydrogen phosphate were weighed out and added into 250 mL of pure water, then sonicated to dissolve the content. Solution A was placed on a stirrer and slowly Solution B was added into Solution A until the pH reached 7.4. Preparation of 10 mmol/L NADPH Solution: NADPH was dissolved at 8.334 mg/mL in phosphate buffer; the solution was freshly prepared prior to use.
The master solution was prepared according to Table 45. The incubation was carried out in 96 deep well plates. The following volumes were dispensed into each well of the incubation plate: 179 μL of the substrate and HLM mixture in phosphate buffer, 1 μL of the compound working solution, or vehicle (mixture of DMSO and acetonitrile (1:4)). The incubation plate was placed into the water bath and pre-warmed at 37° C. for 15 minutes before the reactions was started by the addition of 20 μL of 10 mmol/L NADPH solution in phosphate buffer. After the addition of NADPH, the incubation plate was incubated at 37° C. for corresponding time. The assay was performed in duplicate.
The reaction was quenched by the addition of 1.5 volume (300 μL) of cold acetonitrile containing 3% formic acid and internal standards (200 nM Labetalol, 200 nM Alprazolam and 200 nM tolbutamide). The plate was centrifuged at 3,220 g for 40 minutes. 100 μL of the supernatant was transferred to a new plate. The supernatant was diluted with 100 μL pure water. The samples were mixed well and analyzed using UPLC/MS/MS.
(§2) Data Analysis: The automatic peak integration areas are checked for all the samples. The Analyte Peak Area and Internal Standard Peak Area are exported into excel spreadsheet. The inhibition of each P450 enzyme in human liver microsomes is measured as the percentage decrease in the activity of marker metabolite formation compared to non-inhibited controls (=100% activity).
The percentage of remaining activity was calculated as follows: […]

[2] = Plasma Protein Binding with Ultracentrifugation Method, rat; conditions: for fraction unbound at 30 min, 1 μM: rat plasma, read-out: Rat plasma protein binding (% bound); for fraction unbound at 5.5 h, 1 μM: rat, plasma, read-out: Plasma Protein Binding PPB (r) % (converted)
Description: The frozen plasma (stored at −80° C.) was thawed in a 37° C. water bath, followed by centrifugation at 3,220 g for 10 minutes to remove clots. The supernatant was removed into a new tube as the spun plasma. The spun plasma was pre-warmed in a 37° C. water bath for 10 minutes. The stock solutions of test compounds were diluted to 200 μM in DMSO, and then spiked into the plasma. Duplicate samples were prepared. The final concentration of compound was 1.0 μM. The final concentration of organic solvent was 0.5%. Warfarin was used as positive control in the assay. 1.0 mL of the spiked plasma was transferred to a new balance ultracentrifuge tube. Samples were incubated at 37° C., 5% CO2 for 30 minutes. After incubation, the balance ultracentrifuge tubes were centrifuged at 600,000 g for 5.5 hours at 37° C. After centrifugation, 50 μL solution was removed from the center of the ultracentrifuge tubes as the post-ultracentrifugation samples, followed by the addition of 50 μL blank plasma and 400 μL quench solution (acetonitrile containing internal standards (IS, 100 nM Alprazolam, 500 nM Labetalol and 2 μM Ketoprofen)) to precipitate protein and release compounds. Samples were vortexed for 2 minutes, followed by centrifugation at 20,000 g for 15 minutes at room temperature. The supernatant was diluted with ultrapure water and then used for LC-MS/MS analysis. Stability samples was prepared by transferring 50 μL of the spiked plasma to 0.6 mL tubes and incubated at 37° C., 5% CO2 for 0.5 and 6 hours. After incubation, 50 μL PBS (100 mM, pH7.4) and 400 μL quench solution were added to the stability samples. And then stability samples were treated the same way as the post-ultracentrifugation samples. The supernatant was diluted with ultrapure water and then used for LC-MS/MS analysis. 0.5 hour time point samples were also used as no-spun controls. Time 0 samples were prepared by transferring 50 μL spiked plasma to 0.6 mL tubes containing 50 μL PBS, followed by the addition of 400 μL quench solution to precipitate protein and release compound. And then these samples were treated the same way as the post-ultracentrifugation samples. The supernatant was diluted with ultrapure water and then used for LC-MS/MS analysis.
(§3) Data Analysis: All calculations were carried out using Microsoft Excel. The concentrations of test compound in plasma samples and post-ultracentrifugation plasma was determined from peak areas. The percentages of test compound bound was calculated as follows: […]
“+++” indicates a % bound value less than 50, “++” indicates a % bound value between 50 and 75, and “+” indicates a % bound value above 75.

[3] = Plasma Protein Binding, monkey; conditions: read-out: Plasma Protein Binding PPB (mon) % (converted)
Description: (§4) Example 10: Plasma Protein Binding Determination with Ultracentrifugation Method
(§5) The frozen plasma (stored at −80° C.) was thawed in a 37° C. water bath, followed by centrifugation at 3,220 g for 10 minutes to remove clots. The supernatant was removed into a new tube as the spun plasma. The spun plasma was pre-warmed in a 37° C. water bath for 10 minutes. The stock solutions of test compounds were diluted to 200 μM in DMSO, and then spiked into the plasma. Duplicate samples were prepared. The final concentration of compound was 1.0 μM. The final concentration of organic solvent was 0.5%. Warfarin was used as positive control in the assay. 1.0 mL of the spiked plasma was transferred to a new balance ultracentrifuge tube. Samples were incubated at 37° C., 5% CO2 for 30 minutes. After incubation, the balance ultracentrifuge tubes were centrifuged at 600,000 g for 5.5 hours at 37° C. […]
as §3

[4] = Suspension Monkey heps ClInt; conditions: @1 and 0.1 mM
Description: Compound Nos. 9 and 46 have the following in vitro DMPK profiles.

[5] = system: CYP; experiment: CYP Inhibition (in vitro DMPK profile, Table 52)
Description: Example 11: CYP Inhibition Assay
as §1, §2

[6] = Plasma Protein Binding, dog; conditions: read-out: Plasma Protein Binding PPB (d) % (converted)
Description: as §4, §5, §3

T1 sequence (P08684 whole entry): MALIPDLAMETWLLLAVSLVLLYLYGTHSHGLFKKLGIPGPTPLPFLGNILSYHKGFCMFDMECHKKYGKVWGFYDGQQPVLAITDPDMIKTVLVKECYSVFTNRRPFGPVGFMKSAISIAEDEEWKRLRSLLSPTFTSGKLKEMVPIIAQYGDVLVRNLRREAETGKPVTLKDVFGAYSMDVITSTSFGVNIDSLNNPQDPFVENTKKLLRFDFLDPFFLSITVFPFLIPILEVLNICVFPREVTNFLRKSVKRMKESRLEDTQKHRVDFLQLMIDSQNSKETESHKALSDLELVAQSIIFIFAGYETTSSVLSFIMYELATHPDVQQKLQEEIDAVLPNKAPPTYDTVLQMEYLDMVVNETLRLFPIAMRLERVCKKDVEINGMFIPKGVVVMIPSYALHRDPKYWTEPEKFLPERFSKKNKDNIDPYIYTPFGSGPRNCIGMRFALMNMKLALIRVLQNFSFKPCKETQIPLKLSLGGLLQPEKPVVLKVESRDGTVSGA

**Q.** For `C[C@H](n1cnc2c(-c3cnn(C)c3)nc(-c3ccc(Cl)cc3)cc2c1=O)C(C)(C)O` [Compound 30], which inhibition at 10 µM [1] is on record?
**A.** 12.2%

**Q.** And the fraction unbound at 30 min, 1 μM [2]?
**A.** < 0.25

**Q.** With `CC(C)(O)Cn1cnc2c(-c3cccnc3)nc(-c3ccc(Cl)cc3)cc2c1=O` [Compound 18] as the compound, how does the inhibition at 10 µM [1] read?
**A.** 35.2%

**Q.** With `O=c1c2cc(-c3ccc(Cl)cc3)nc(-c3cccnc3)c2ncn1[C@H]1COC[C@@H]1O` [Compound 125, 6-(4-chlorophenyl)-3-((3S,4R)-4-hydroxytetrahydrofuran-3-yl)-8-(pyridin-3-yl)pyrido[3,4-d]pyrimidin-4(3H)-one] as the compound, how does the inhibition at 10 µM [1] read?
**A.** 23.8%

**Q.** For `C[C@@H](CO)n1cnc2c(-c3cccnc3)nc(-c3ccc(C(F)(F)F)cn3)cc2c1=O` [Compound 46, (S)-3-(1-hydroxypropan-2-yl)-8-(pyridin-3-yl)-6-(5-(trifluoromethyl)pyridin-2-yl)pyrido[3,4-d]pyrimidin-4(3H)-one], which fraction unbound at 5.5 h, 1 μM [3] is on record?
**A.** 0.113

**Q.** And the inhibition at 10 µM [1]?
**A.** 2.26%

**Q.** And the “Suspension Monkey heps ClInt (% Qh)” value [4]?
**A.** <24 (@1 and % Qh

**Q.** And the “CYP Inhibition” value [5]?
**A.** Negative

**Q.** What about the fraction unbound at 5.5 h, 1 μM [6] of the same compound?
**A.** 0.11

**Q.** What about the fraction unbound at 30 min, 1 μM [2] of the same compound?
**A.** < 0.25

**Q.** What about the fraction unbound at 5.5 h, 1 μM [2] of the same compound?
**A.** 0.102

**Q.** Which fraction unbound at 5.5 h, 1 μM [3] does the source give for `CC(C)(O)Cn1cnc2c(-c3cccnc3)nc(-c3ccc(C(F)(F)F)nc3)cc2c1=O` [Compound 9] here?
**A.** 0.149

**Q.** And the “Suspension Monkey heps ClInt (% Qh)” value [4]?
**A.** <24 (@1 and % Qh

**Q.** What about the “CYP Inhibition” value [5] of the same compound?
**A.** Negative

**Q.** And the fraction unbound at 5.5 h, 1 μM [6]?
**A.** 0.124

**Q.** What about the fraction unbound at 30 min, 1 μM [2] of the same compound?
**A.** < 0.25

**Q.** And the fraction unbound at 5.5 h, 1 μM [2]?
**A.** 0.098

**Q.** Which fraction unbound at 30 min, 1 μM [2] does the source give for `C[C@@H](CO)n1cnc2c(-c3cccc(F)c3)nc(-c3ccc(Cl)cc3)cc2c1=O` [Compound 7] here?
**A.** < 0.25
